Experimental data as given in publication PMC4792576, “Formononetin, a novel FGFR2 inhibitor, potently inhibits angiogenesis and tumor growth in preclinical models” (Oncotarget, 2015).

What was measured:
[1] = target: FGFR1 (Homo sapiens, UniProt P11362); assay: radiometric kinase panel (Millipore), single concentration […]; type: biochemical; details: read-out: Inhibition rate at 1 μM (%)
[2] = target: T1, FGFR2 (Homo sapiens, UniProt P21802); assay: in vitro FGFR2 kinase assay (CycLex kit / Z'-lyte FRET), dose response; radiometric panel […] at […]; type: biochemical
T1 construct: kinase domains of FGFR2
T1 sequence (P21802 458-768 limits assumed): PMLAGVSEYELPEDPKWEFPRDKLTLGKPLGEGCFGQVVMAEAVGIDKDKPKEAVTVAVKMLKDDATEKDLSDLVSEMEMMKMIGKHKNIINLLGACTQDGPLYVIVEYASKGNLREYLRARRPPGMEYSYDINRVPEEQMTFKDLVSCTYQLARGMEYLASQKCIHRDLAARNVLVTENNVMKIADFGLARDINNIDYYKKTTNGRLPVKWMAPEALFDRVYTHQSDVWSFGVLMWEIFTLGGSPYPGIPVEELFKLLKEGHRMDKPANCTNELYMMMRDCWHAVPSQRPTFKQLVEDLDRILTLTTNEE

FGFR1, sequence (P11362 22-822): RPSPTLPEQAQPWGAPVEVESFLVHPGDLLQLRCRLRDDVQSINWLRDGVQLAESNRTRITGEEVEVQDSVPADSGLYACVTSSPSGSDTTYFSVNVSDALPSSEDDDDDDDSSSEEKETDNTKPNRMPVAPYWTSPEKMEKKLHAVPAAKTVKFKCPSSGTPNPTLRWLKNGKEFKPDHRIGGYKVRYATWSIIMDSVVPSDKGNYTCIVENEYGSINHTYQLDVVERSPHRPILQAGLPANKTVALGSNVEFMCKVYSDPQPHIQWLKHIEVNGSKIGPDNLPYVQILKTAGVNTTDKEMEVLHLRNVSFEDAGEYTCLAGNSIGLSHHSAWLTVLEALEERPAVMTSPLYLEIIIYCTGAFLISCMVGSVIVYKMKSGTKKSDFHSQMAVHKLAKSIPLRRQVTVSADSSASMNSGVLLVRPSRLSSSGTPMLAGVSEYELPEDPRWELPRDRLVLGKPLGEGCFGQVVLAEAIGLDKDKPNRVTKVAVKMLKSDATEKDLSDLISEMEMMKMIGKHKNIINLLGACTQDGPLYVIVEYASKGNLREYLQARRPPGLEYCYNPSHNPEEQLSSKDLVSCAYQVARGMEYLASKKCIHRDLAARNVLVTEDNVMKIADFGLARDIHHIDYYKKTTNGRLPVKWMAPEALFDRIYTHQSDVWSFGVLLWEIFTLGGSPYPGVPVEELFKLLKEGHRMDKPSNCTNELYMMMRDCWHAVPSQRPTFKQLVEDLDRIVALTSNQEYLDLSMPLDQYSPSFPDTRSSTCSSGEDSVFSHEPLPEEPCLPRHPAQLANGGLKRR

In the case of `COc1ccc(-c2coc3cc(O)ccc3c2=O)cc1` [formononetin], the inhibition at 1 µM [1] is reported as 57 ± 4% and the IC50 [2] is reported as ~4.31 µM.
